Earlier results, collected in patent US20130030007A1, “Obesity Small Molecules” (AKRON MOLECULES GMBH, priority 2010, published 2013).
Read-outs that look alike come from different tables or passages of the source. Non-standard residues stand in square brackets, D forms with d. Residues, ends and D or L forms follow the SMILES beside them. *: point of attachment. Sta = CC(C)C[C@H](N)[C@@H](O)CC(=O)O; Isovaleryl = CC(C)CC(=O)*

Test system: human ortholog of Drosophila obesity gene
Design: key: O: Obesity - obesity pathway interaction; B: validated binding partner
Conditions: cited from earlier work
[1] = interaction of the small molecule with the human ortholog(s) / Drosophila gene(s) listed in the same table line

Structure (SMILES)	Type: Type of interaction	Type: Type of interaction [1]
C[C@]12CCC(=O)C=C1CC[C@@H]1[C@@H]2[C@@H](O)C[C@@]2(C)[C@H]1CC[C@]2(O)C(=O)CO [Optef]	O	
CO[C@H]1O[C@H](COS(=O)(=O)O)[C@@H](O[C@@H]2O[C@@H](C(=O)O)[C@@H](O[C@H]3O[C@H](COS(=O)(=O)O)[C@@H](O[C@@H]4O[C@H](C(=O)O)[C@@H](O[C@H]5O[C@H](COS(=O)(=O)O)[C@@H](O)[C@H](O)[C@H]5NS(=O)(=O)O)[C@H](O)[C@H]4O)[C@H](OS(=O)(=O)O)[C@H]3NS(=O)(=O)O)[C@H](O)[C@H]2OS(=O)(=O)O)[C@H](O)[C@H]1NS(=O)(=O)O [Org 31540]		B
Cc1ccccc1C(OCCN(C)C)c1ccccc1 (centres unmarked) [Orphenadrine]		O
C[C@@H]1O[C@@H](O[C@H]2C[C@@H](O)[C@]3(CO)[C@H]4[C@H](O)C[C@]5(C)[C@@H](C6=CC(=O)OC6)CC[C@]5(O)[C@@H]4CC[C@]3(O)C2)[C@H](O)[C@H](O)[C@H]1O [Ouabain]		B
NCCc1cc(O)c(O)cc1O [Oxidopamine]	B	
CCN(CC)CC#CCOC(=O)C(O)(c1ccccc1)C1CCCCC1 (centres unmarked) [Oxytrol]		O
COc1cccc(-c2cc(=O)c3ccccc3o2)c1N [PD 98059]	B	
O=[N+]([O-])c1ccc(-c2nc(-c3ccc(F)cc3)c(-c3ccncc3)[nH]2)cc1 [PD 169316]	B	
CCN(CC)CCCCNc1ncc2cc(-c3cc(OC)cc(OC)c3)c(NC(=O)NC(C)(C)C)nc2n1 [PD 173074]	B	
CCCC(=O)O[C@@H]1[C@@H](C)[C@@]2(O)[C@@H](C=C(CO)C[C@]3(O)C(=O)C(C)=C[C@@H]23)[C@@H]2C(C)(C)[C@]12OC(=O)CCC [PDBU]	O	
O=S(=O)(F)Cc1ccccc1 [PMSF]	O	
CC(=O)O[C@H]1C(=O)[C@@]2(C)[C@H]([C@H](OC(=O)c3ccccc3)[C@]3(O)C[C@H](OC(=O)[C@H](O)[C@@H](NC(=O)c4ccccc4)c4ccccc4)C(C)=C1C3(C)C)[C@]1(OC(C)=O)CO[C@@H]1C[C@@H]2O [Paclitaxel]		B
O=C1C=C2C(=CCOC2O)O1 (centres unmarked) [Patulin]	O	
CC1=C\[C@H](C)C[C@@]2(C)CC[C@@H](O2)[C@@]23CC[C@@](C)(C[C@@H](O2)[C@H]2O[C@](C)(CC2=O)[C@@H](O)[C@@H]2CC[C@@]4(CCC[C@H](O4)[C@@H](C)C(=O)O[C@@H]4C[C@@H]([C@@]5(O)OCC[C@@H](C)[C@H]5O)O[C@@H]4\C=C\1)O2)O3 [Pectenotoxin II]	B	
Nc1nc2[nH]cc(CCc3ccc(C(=O)N[C@@H](CCC(=O)O)C(=O)O)cc3)c2c(=O)[nH]1 [Pemetrexed]		B
CC(=O)CCCCn1c(=O)c2c(ncn2C)n(C)c1=O [Pentoxifylline]		B
Cc1c(N)nc([C@H](CC(N)=O)NC[C@H](N)C(N)=O)nc1C(=O)N[C@H](C(=O)N[C@H](C)[C@@H](O)[C@H](C)C(=O)N[C@H](C(=O)NCCc1nc(-c2nc(C(=O)NCCCN[C@@H](C)c3ccccc3)cs2)cs1)[C@@H](C)O)[C@@H](O[C@@H]1O[C@@H](CO)[C@@H](O)[C@H](O)[C@@H]1O[C@H]1O[C@H](CO)[C@@H](O)[C@H](OC(N)=O)[C@@H]1O)c1c[nH]cn1 [Peplomycin]	B	
CC(C)CC(=O)N[C@H](C(=O)N[C@H](C(=O)N[C@@H](CC(C)C)[C@@H](O)CC(=O)N[C@@H](C)C(=O)N[C@@H](CC(C)C)[C@@H](O)CC(=O)O)C(C)C)C(C)C [Pepstatin A] (Isovaleryl-VV[Sta]A[Sta]-OH)	O	
CN1CCN(CCCN2c3ccccc3Sc3ccccc32)CC1 [Perazine]		O
C=C(C)[C@@H]1CC=C(CO)CC1 [Perillol]		B
CCC[C@H](N[C@@H](C)C(=O)N1[C@H](C(=O)O)C[C@@H]2CCCC[C@@H]21)C(=O)OCC [Perindopril]		B
CCC(c1ccccc1)c1c(O)c2ccccc2oc1=O (centres unmarked) [Phenprocoumon]		O

Structure (SMILES)	Type: Type of interaction	Type: Type of interaction [1]
O=C1NC(=O)C(c2ccccc2)(c2ccccc2)N1 [Phenytoin]		B
CN1C(C(=O)Nc2ccccn2)=C(O)c2ccccc2S1(=O)=O [Piroxicam]		B
COc1cc2nc(N3CCN(C(=O)c4ccco4)CC3)nc(N)c2cc1OC [Prazosin]		O
C[C@]12C=CC(=O)C=C1CC[C@@H]1[C@@H]2C(=O)C[C@@]2(C)[C@H]1CC[C@]2(O)C(=O)CO [Prednisone]		O
CCC1(c2ccccc2)C(=O)NCNC1=O [Primidone]		B
CCCC(C(=O)OCCN(CC)CC)(c1ccccc1)c1ccccc1 [Proadifen]		O
CCCc1cc(=O)[nH]c(=S)[nH]1 [Procasil]	O	
CC(C)OC(=O)C(C)(C)Oc1ccc(C(=O)c2ccc(Cl)cc2)cc1 [Procetofen]	O	
CC(=O)[C@@]1(O)CC[C@H]2[C@@H]3CCC4=CC(=O)CC[C@]4(C)[C@H]3CC[C@@]21C [Prodix]	B	
CCC(=O)[C@@]1(C)CC[C@H]2[C@@H]3CCC4=CC(=O)CCC4=C3CC[C@@]21C [Promegestone]		O
CC(C)c1cccc(C(C)C)c1O [Propofol]	B	
Cc1cc(O)c2c(=O)c3c(O)cc(O)c4c5c(O)cc(O)c6c(=O)c7c(O)cc(CO)c8c1c2c(c34)c(c65)c78 [Pseudohypericin]	O	
CC(=O)N[C@H]1/C(=N/OC(=O)Nc2ccccc2)O[C@H](CO)[C@@H](O)[C@@H]1O [Pugnac]		B
O=C(c1ccc(OCCN2CCCCC2)cc1)c1c(-c2ccc(O)cc2)sc2cc(O)ccc12 [Raloxifene]		B
O[C@]12C=C(c3nccc4c3[nH]c3ccccc34)[C@@H]3CCN(CCCC/C=C\CC1)C[C@@]31C[C@@H]3/C=C\CCCCN3[C@H]12 [manzamine A]	O	
O=c1c(O)c(-c2ccc(O)c(O)c2)oc2cc(O)cc(O)c12 [meletin]		B
Nc1ccc(O)c(C(=O)O)c1 [mesalamine]		B
Cc1cccc(C)c1N(Cn1cccn1)C(=O)CCl [metazachlor]		B
Cc1nc2nc(N)[nH]c(=O)c2nc1[C@@H](C)Nc1ccc(C[C@H](O)[C@H](O)[C@H](O)CO[C@H]2O[C@H](COP(=O)(O)O[C@@H](CCC(=O)O)C(=O)O)[C@@H](O)[C@H]2O)cc1 [methanopterin]		B
COc1ccc2c(c1)[C@@]13CCCC[C@H]1[C@@H](C2)NCC3 [methoxymorphinan]	O	
Clc1ccc(COC(Cn2ccnc2)c2ccc(Cl)cc2Cl)c(Cl)c1 (centres unmarked) [miconazole]		O
CCCCN1C[C@H](O)[C@@H](O)[C@H](O)[C@H]1CO [miglustat]		O

Structure (SMILES)	Type: Type of interaction	Type: Type of interaction [1]
CN1CCN2c3ncccc3Cc3ccccc3C2C1 (centres unmarked) [mirtazapine]		B
CO[C@H](C(=O)[C@@H](O)[C@@H](C)O)[C@@H]1Cc2cc3cc(O[C@H]4C[C@@H](O[C@H]5C[C@@H](O)[C@H](O)[C@@H](C)O5)[C@H](O)[C@@H](C)O4)c(C)c(O)c3c(O)c2C(=O)[C@H]1O[C@H]1C[C@@H](O[C@H]2C[C@@H](O[C@H]3C[C@](C)(O)[C@H](O)[C@@H](C)O3)[C@@H](O)[C@@H](C)O2)[C@H](O)[C@@H](C)O1 [mithramycin A]	B	
CNCc1nnc2n1-c1ccc(Cl)cc1C(c1ccccc1)=NC2 [mono-N-demethyladinazolam]	O	
C[C@@H]1C[C@H]2O[C@@H]2/C=C\C=C\C(=O)Cc2cc(O)cc(O)c2C(=O)O1 [monocillin I]	O	
CN(C)c1cccc2c(S(=O)(=O)NCCCCCN)cccc12 [monodansylcadaverine]		O
CN1CC[C@]23c4c5ccc(O[C@@H]6O[C@H](C(=O)O)[C@@H](O)[C@H](O)[C@H]6O)c4O[C@H]2[C@@H](O)C=C[C@H]3[C@H]1C5 [morphine-3-glucuronide]	B	
CCOc1cc(N)c(Cl)cc1C(=O)NCC1CN(Cc2ccc(F)cc2)CCO1 (centres unmarked) [mosapride]		O
CC1CC(=O)NN=C1c1cc(-n2ccnc2)cs1 (centres unmarked) [motapizone]	O	
Oc1ccc2c3c1O[C@H]1c4[nH]c5ccccc5c4C[C@@]4(O)[C@@H](C2)N(CC2CC2)CC[C@]314 [naltrindole]	B	
CO[C@H]1CC[C@@H](O[C@H]2C[C@H]([C@]3(C)CC[C@]4(C[C@H](O)[C@@H](C)[C@@H]([C@@H](C)/C=C(\C)C(=O)[C@H](C)C[C@H](C)C(=O)O)O4)O3)O[C@]3(O[C@@H]([C@H]4O[C@@](O)(CO)[C@H](C)C[C@@H]4C)C[C@@H]3C)[C@@H]2C)O[C@@H]1C [nanchangmycin]	O	
CC(C)[C@H]1CC[C@H](C(=O)N[C@H](Cc2ccccc2)C(=O)O)CC1 [nateglinide]		O
[NH2][Pt]1([NH2])[O]CC(=O)[O]1 [nedaplatin]	O	
CNc1cc(OC)c(C(=O)NC2CCN(Cc3ccccc3)C2C)cc1Cl (centres unmarked) [nemonapride]		O
O=C1NC(=O)C(Cc2ccc3cc(OCc4ccccc4F)ccc3c2)S1 (centres unmarked) [netoglitazone]		B
CC(CNC(=O)c1cccnc1)NC(=O)c1cccnc1 (centres unmarked) [nicaraven]		O
O=C1OC(=O)[C@H]2[C@@H]1[C@@H]1CC[C@H]2O1 [norcantharidin]	B	
O=C1NC(=O)C2C3C=CC(C3)C12 (centres unmarked) [noreximide]	O	
NCCC(Oc1ccc(C(F)(F)F)cc1)c1ccccc1 (centres unmarked) [norfluoxetine]		B
Oc1ccc(CC2NCCc3cc(O)c(O)cc32)cc1O (centres unmarked) [norlaudanosoline]	B	
COc1ccc(CCNCCCC(C#N)(c2ccc(OC)c(OC)c2)C(C)C)cc1OC (centres unmarked) [norverapamil]		O
CO[C@@H]1[C@@H](OC(N)=O)[C@@H](O)[C@H](Oc2ccc3c(O)c(NC(=O)c4ccc(O)c(CC=C(C)C)c4)c(=O)oc3c2C)OC1(C)C [novobiocin]		O
